How the values were obtained:
[1] = test system: adjuvant-induced arthritis; format: in vivo, rat (male Lewis rats); conditions: 30 mg/kg daily by intubation, 7 treatment days; day 28 minus day 21; micronized compound; standard deviation in parentheses
Protocol: As mentioned earlier, the compounds of formula (1) and pharmaceutically acceptable salts of compounds of formula (1) are useful in the treatment or prevention of inflammations. For example, they can be used as anti-inflammatory agents in the treatment of inflammatory joint diseases, such as arthritis, and in other diseases where inflammation is the inherent cause.
The adjuvant was prepared by homogenizing 170 mg of heat-killed and dried mycobacterium tuberculosis (Difco) in 22.7 mL of ‘Incomplete Freund's Adjuvant’ (ICFA, Difco). Male Lewis rats with body weights of 130-150 g were injected i.d. at the base of the tail with 0.1 ml of adjuvant. The non-diseased animals received 0.1 mL of ICFA i.d. The animals were housed individually and received feed and water ad libitum. The thus-induced arthritis was allowed to develop without treatment during 21 days. On day 21 the body weight of each animal was determined. At the same time, the volumes of the two hind paws of each animal were measured by immersing the paws in an aqueous plethysmograph up to the height of the lateral malleolus. […] Paw volumes and body weight were recorded diurnally. At the end of the treatment period (day 28), body weights and volumes of the hind paws were again determined. The changes over the treatment period were calculated. […] Subsequently, the animals were sacrificed and the liver weights recorded. […]

[2] = target: T1, human recombinant COX-2 (Homo sapiens, UniProt P35354); assay: COX activity assay (Cayman colorimetric kit), COX-2; format: biochemical; conditions: purified enzyme, peroxidase activity read at 590 nm
T1 construct: purchased Cayman Chemicals
T1 sequence (P35354 18-604): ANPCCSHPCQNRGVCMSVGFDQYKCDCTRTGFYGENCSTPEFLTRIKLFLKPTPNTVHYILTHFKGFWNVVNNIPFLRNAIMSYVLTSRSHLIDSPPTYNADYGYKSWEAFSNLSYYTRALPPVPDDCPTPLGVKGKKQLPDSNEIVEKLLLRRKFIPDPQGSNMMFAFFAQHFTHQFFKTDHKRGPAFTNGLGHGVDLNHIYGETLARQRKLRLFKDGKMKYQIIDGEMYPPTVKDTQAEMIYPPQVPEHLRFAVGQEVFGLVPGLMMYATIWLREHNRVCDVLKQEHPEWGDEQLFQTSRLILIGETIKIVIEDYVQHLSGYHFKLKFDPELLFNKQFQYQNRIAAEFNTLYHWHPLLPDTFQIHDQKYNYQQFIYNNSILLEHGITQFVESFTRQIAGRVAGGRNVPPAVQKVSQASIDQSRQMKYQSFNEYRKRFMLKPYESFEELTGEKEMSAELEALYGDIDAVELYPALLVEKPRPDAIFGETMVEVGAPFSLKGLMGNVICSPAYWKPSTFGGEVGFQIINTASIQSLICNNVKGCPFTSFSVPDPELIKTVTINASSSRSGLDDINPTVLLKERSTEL
Protocol: (§1) COX activity was measured using an assay kit obtained from Cayman Chemicals in accord with the instruction manual of the manufacturer “COX Activity Assay, Catalog No. 760151, Colorimetric Assay for the Determination of COX Activity.” The enzyme activity was determined by the peroxidase activity of cyclooxygenases on arachidonic acid and monitored colorimetrically at 590 nm by the appearance of oxidized N,N,N′,N′-tetramethyl-p-phenylenediamine. Both ovine COX-1 and human recombinant COX-2 were obtained from Cayman Chemicals.

[3] = target: T2, ovine COX-1 (Ovis aries, UniProt P05979); assay: COX activity assay (Cayman colorimetric kit), COX-1; format: biochemical; conditions: at a level of 300 μM; purified enzyme, peroxidase activity read at 590 nm
T2 construct: purchased Cayman Chemicals
T2 sequence (P05979 25-600): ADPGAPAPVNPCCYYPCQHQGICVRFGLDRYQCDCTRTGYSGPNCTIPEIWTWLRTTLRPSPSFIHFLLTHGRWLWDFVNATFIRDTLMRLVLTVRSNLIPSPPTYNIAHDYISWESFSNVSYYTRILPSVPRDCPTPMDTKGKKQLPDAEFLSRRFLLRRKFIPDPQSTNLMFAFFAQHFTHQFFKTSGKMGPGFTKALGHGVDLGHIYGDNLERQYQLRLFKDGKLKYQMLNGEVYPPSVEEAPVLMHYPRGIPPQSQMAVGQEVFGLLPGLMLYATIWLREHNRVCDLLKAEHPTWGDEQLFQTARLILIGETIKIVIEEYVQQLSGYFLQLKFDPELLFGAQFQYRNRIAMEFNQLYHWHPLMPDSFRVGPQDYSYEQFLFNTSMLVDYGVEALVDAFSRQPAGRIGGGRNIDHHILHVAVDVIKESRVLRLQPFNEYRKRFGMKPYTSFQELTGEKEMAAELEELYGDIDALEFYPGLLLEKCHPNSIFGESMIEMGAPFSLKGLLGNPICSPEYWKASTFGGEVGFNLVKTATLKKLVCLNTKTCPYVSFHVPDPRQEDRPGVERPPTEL
Protocol: as §1

`CNS(=O)(=O)c1nn[nH]c1-c1cc(C(C)(C)C)c(O)c(C(C)(C)C)c1` [Compound 1i, 5-(3,5-di-tert-butyl-4-hydroxy-phenyl)-N-methyl-1H-triazole-4-sulfonamide] was tested, and the “Volume change of left paw” value [1] was −0.73 (0.08) mL, the “Volume change of right paw” value [1] was −0.63 (0.11) mL and the IC50 [2] was 68 µM. For the same molecule, the “effect on COX-1 activity” value [3] was “no effect”.

Source: patent US8853248B2, “(1,2,3-triazolyl)sulfonyl derivatives” (priority 2012, dated 2014)
